Read-outs that look alike come from different tables or passages of the source.
Tests used:
[1] = system: Pfeiffer; experiment: cells; format: cell-based; conditions: Homo sapiens, DLBCL, dominant CDK6, read-out: IC50, mean ± SD
[2] = system: REH; experiment: cells; format: cell-based; conditions: Homo sapiens, ALL, dominant CDK6, read-out: IC50, mean ± SD
[3] = system: SEM cells; experiment: cells; format: cell-based; conditions: ALL, dominant CDK6, read-out: IC50, mean ± SD
[4] = system: MGH051; experiment: cells; format: cell-based; conditions: MGH051, 72 h
[5] = system: NCI-H441; experiment: cells; format: cell-based; conditions: Homo sapiens, NCI-H441, 72 h
[6] = system: KYSE150; experiment: cells; format: cell-based; conditions: Homo sapiens, KYSE-150; KYSE150, 72 h
[7] = system: TE-5; experiment: cells; format: cell-based; conditions: Homo sapiens, TE-5, 72 h
[8] = system: SNU-387; experiment: cells; format: cell-based; conditions: Homo sapiens, SNU-387, 72 h
[9] = system: HPAX1317; format: in vivo; conditions: HPAX1317, Pancreatic, Rb present; 250 mg/kg qd
[10] = system: HMEX1906; format: in vivo; conditions: mouse, in vivo, 250 mg/kg
Procedure: Animals were housed in a temperature-
In all studies, tumor volume was calculated
For using the following formula: (length × width2)/2. Percent
Data are presented as the percent

[11] = system: WM-115; experiment: cells; format: cell-based; conditions: Homo sapiens, WM-115, 72 h
[12] = system: TE-14; experiment: cells; format: cell-based; conditions: TE-14, 72 h
[13] = system: NCI-H1573; experiment: cells; format: cell-based; conditions: Homo sapiens, NCI-H1573, 72 h
[14] = system: NCI-H2030; experiment: cells; format: cell-based; conditions: Homo sapiens, NCI-H2030, 72 h
[15] = system: NCI-H2228; experiment: cells; format: cell-based; conditions: Homo sapiens, NCI-H2228, 72 h
[16] = system: WM-115; experiment: cells; format: cell-based; conditions: Homo sapiens, WM-115, 72 h; remark: listed apart in the source
[17] = target: T1, CDK4 (Homo sapiens, UniProt P11802); experiment: KINOMEscan binding assay; conditions: Supplementary Table 1A
T1 construct: purchased DiscoveRx (KINOMEscan)

[18] = system: hs944T; experiment: cells; format: cell-based; conditions: 72 h
[19] = system: NCI-H2228; experiment: cells; format: cell-based; conditions: Homo sapiens, NCI-H2228, 72 h; remark: listed apart in the source
[20] = system: VCAP; experiment: cells; format: cell-based; conditions: Homo sapiens, 72 h
[21] = system: HPAX1199; format: in vivo; conditions: HPAX1199, Pancreatic, Rb present; 250 mg/kg qd
[22] = system: MEL-JUSO; format: in vivo; conditions: Melanoma
[23] = system: LnCAP; experiment: cells; format: cell-based; conditions: Homo sapiens, 72 h
[24] = system: SNU-761; experiment: cells; format: cell-based; conditions: SNU-761, 72 h
[25] = system: HBCx-11; format: in vivo; conditions: HBCx-11, Breast, TNBC, Rb present; 125 mg/kg bid × 21
[26] = system: NB1; experiment: cells; format: cell-based; conditions: Homo sapiens, NB1, 72 h
[27] = system: HBCx-16; format: in vivo; conditions: HBCx-16, Breast, HER2High, Rb present; 125 mg/kg bid × 21
[28] = system: SNU-387; experiment: cells; format: cell-based; conditions: Homo sapiens, SNU-387, 72 h; remark: listed apart in the source
[29] = system: T-47d; experiment: cells; format: cell-based; conditions: Homo sapiens, T47D, 72 h
[30] = system: OE33; experiment: cells; format: cell-based; conditions: Homo sapiens, OE33, 72 h
[31] = system: KYSE150; experiment: cells; format: cell-based; conditions: Homo sapiens, KYSE-150; KYSE150, 72 h; remark: listed apart in the source
[32] = system: BT-483; experiment: cells; format: cell-based; conditions: Homo sapiens, BT-483, 72 h
[33] = system: SK-MEL-28; experiment: cells; format: cell-based; conditions: Homo sapiens, SK-MEL-28, 72 h
[34] = system: HPAX1633; format: in vivo; conditions: HPAX1633, Pancreatic, Rb present; 250 mg/kg qd
[35] = system: NCI-H2030; experiment: cells; format: cell-based; conditions: Homo sapiens, NCI-H2030, 72 h; remark: listed apart in the source
[36] = system: MCF-7; experiment: cells; format: cell-based; conditions: Homo sapiens, MCF7; MCF-7, 72 h
[37] = system: SK-MEL-5; experiment: cells; format: cell-based; conditions: Homo sapiens, SK-MEL-5, 72 h
[38] = system: NCI-H3255; experiment: cells; format: cell-based; conditions: Homo sapiens, NCI-H3255, 72 h
[39] = system: HBCx-15; format: in vivo; conditions: HBCx-15, Breast, TNBC, Rb absent; 125 mg/kg bid × 21
[40] = Pharmacokinetics in mice; format: in vivo; conditions: 75 mg/kg once daily, data not shown
[41] = system: CHP-212; experiment: cells; format: cell-based; conditions: Homo sapiens, CHP-212, 72 h
[42] = system: KYSE30; experiment: cells; format: cell-based; conditions: Homo sapiens, KYSE-30; KYSE30, 72 h
[43] = system: TE-14; experiment: cells; format: cell-based; conditions: TE-14, 72 h; remark: listed apart in the source

T1 sequence (P11802 whole entry): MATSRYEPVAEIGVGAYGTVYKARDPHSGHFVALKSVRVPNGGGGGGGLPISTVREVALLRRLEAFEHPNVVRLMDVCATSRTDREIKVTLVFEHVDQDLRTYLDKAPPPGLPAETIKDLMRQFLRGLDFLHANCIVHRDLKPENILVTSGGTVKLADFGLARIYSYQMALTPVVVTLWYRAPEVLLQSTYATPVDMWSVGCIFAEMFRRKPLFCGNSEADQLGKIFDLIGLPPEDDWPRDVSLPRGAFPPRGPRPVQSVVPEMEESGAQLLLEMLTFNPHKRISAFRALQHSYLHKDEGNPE

`CC(=O)c1c(C)c2cnc(Nc3ccc(N4CCNCC4)cn3)nc2n(C2CCCC2)c1=O` [Palbociclib, reference compound] showed an IC50 [1] of 89 ± 32 µM, an IC50 [2] of 60 ± 17 µM and an IC50 [3] of 87 ± 28 µM.

Compound `CN(C)C(=O)c1cc2cnc(Nc3ccc(N4CCNCC4)cn3)nc2n1C1CCCC1` [Ribociclib, 7-cyclopentyl-2-(5-piperazin-1-yl-pyridin-2-ylamino)-7H-pyrrolo[2,3-d]pyrimidine-6-carboxylic acid dimethylamide] has an IC50 [4] of over 10 µM, an IC50 [5] of over 10 µM and an IC50 [6] of 6.7 µM. The IC50 [7] was 2.39 µM, the IC50 [8] was over 10 µM and the T/C [9] was 32. The T/C [10] was -12, the IC50 [11] was over 10 µM and the IC50 [12] was over 10 µM. For the same compound, the IC50 [13] was over 10 µM, the IC50 [14] was 8.33 µM and the IC50 [15] was over 10 µM. The IC50 [16] was over 10 µM, the “affinity for CDK4, lower than that observed for abemaciclib” value [17] was about 10 fold and the IC50 [18] was over 10 µM. For the same compound, the IC50 [19] was over 10 µM, the IC50 [20] was over 10 µM and the T/C [21] was 18. It also gave a T/C ([22]; 75 mg/kg qd) of 47, a T/C ([22]; 150 mg/kg qd) of 32 and a T/C ([22]; 250 mg/kg qd) of 2. For the same compound, the IC50 [23] was 0.18 µM, the IC50 [24] was over 10 µM and the T/C [25] was 52. The IC50 [26] was 0.37 µM, the T/C [27] was 71 and the IC50 [28] was 2.49 µM. It also gave an IC50 [29] of 0.25 µM, an IC50 [30] of over 10 µM and an IC50 [31] of 0.55 µM. It also gave an IC50 [32] of over 10 µM, an IC50 [33] of 0.98 µM and a T/C [34] of 30. The IC50 [35] was over 10 µM, the IC50 [36] was over 10 µM and the IC50 [37] was over 10 µM. For the same compound, the IC50 [38] was over 10 µM, the T/C [39] was 108 and the “area under the concentration-time curve” value [40] was ~12,500 ng/mL × h. The maximum serum concentration [40] was about 2700 ng/mL, the IC50 [41] was 0.28 µM and the IC50 [42] was over 10 µM. It also gave an IC50 [43] of over 10 µM.

From publication PMC6219668 (Oncotarget, 2018)
